Values joined by “and” are separate entries in the source; they are usually repeats but may differ in a detail not shown here. Equal values may be shown once. Inconclusive results are not listed.
Tested on: BDF1 mice, s.c. Lewis lung carcinoma, T/C %
Experiment: NCI In Vivo Anticancer Drug Screen. Data for tumor model Lewis Lung Carcinoma (subcutaneous) in B6D2F1 (BDF1) mice
Outline: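 Tumor-bearing mice were treated with test compound, and either survival or tumor size was recorded. Values are the treated-group measurement divided by that of the vehicle-treated control group.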

CC1CN(C(=O)CCl)c2ccccc2N1C(=O)CCl (stereo not given)
T/C (endpoint: mean tumor weight, dose: 1.0 mg/kg/injection, schedule: Q01DX011 (ip), vehicle: carboxymethylcellulose (CMC), higher = larger tumour): 121 % of control
T/C (endpoint: mean tumor weight, dose: 2.0 mg/kg/injection, schedule: Q01DX011 (ip), vehicle: carboxymethylcellulose (CMC), higher = larger tumour): 94 % of control
T/C (endpoint: mean tumor weight, dose: 4.0 mg/kg/injection, schedule: Q01DX011 (ip), vehicle: carboxymethylcellulose (CMC), higher = larger tumour): 75 % of control
T/C (endpoint: mean tumor weight, dose: 8.0 mg/kg/injection, schedule: Q01DX011 (ip), vehicle: carboxymethylcellulose (CMC), higher = larger tumour): 124 % of control

COc1ccc(CN2CCCN(Cc3ccc(OC)cc3)C2c2ccccc2)cc1
T/C (endpoint: mean tumor weight, dose: 111.0 mg/kg/injection, schedule: Q01DX011 (ip), vehicle: other, higher = larger tumour): 120 % of control
T/C (endpoint: mean tumor weight, dose: 250.0 mg/kg/injection, schedule: Q01DX011 (ip), vehicle: other, higher = larger tumour): 83 % of control

C=CCn1c(=O)n(CC=C)c(=O)n(CC=C)c1=O
T/C (endpoint: mean tumor weight, dose: 15.0 mg/kg/injection, schedule: Q01DX011 (ip), vehicle: carboxymethylcellulose (CMC), higher = larger tumour): 82 % of control
T/C (endpoint: mean tumor weight, dose: 120.0 mg/kg/injection, schedule: Q01DX011 (ip), vehicle: carboxymethylcellulose (CMC), higher = larger tumour): 112 % of control
T/C (endpoint: mean tumor weight, dose: 240.0 mg/kg/injection, schedule: Q01DX011 (ip), vehicle: carboxymethylcellulose (CMC), higher = larger tumour): 67 % of control

CN(C)CC/C=C1\c2ccccc2Sc2ccc(Cl)cc21
T/C (endpoint: median survival time, dose: 1.87 mg/kg/injection, schedule: Q01DX001 (ip), vehicle: Klucel (hydroxypropylcellulose) (HPC), higher = longer survival): 102 % of control
T/C (endpoint: median survival time, dose: 3.75 mg/kg/injection, schedule: Q01DX001 (ip), vehicle: Klucel (hydroxypropylcellulose) (HPC), higher = longer survival): 109 % of control
T/C (endpoint: median survival time, dose: 7.5 mg/kg/injection, schedule: Q01DX001 (ip), vehicle: Klucel (hydroxypropylcellulose) (HPC), higher = longer survival): 88 % of control
T/C (endpoint: median survival time, dose: 15.0 mg/kg/injection, schedule: Q01DX001 (ip), vehicle: Klucel (hydroxypropylcellulose) (HPC), higher = longer survival): 102 % of control

Nc1ccc(OC(=O)Oc2ccc(N)cc2)cc1
T/C (endpoint: mean tumor weight, dose: 31.3 mg/kg/injection, schedule: Q01DX011 (ip), vehicle: saline, higher = larger tumour): 60 % of control
T/C (endpoint: mean tumor weight, dose: 62.5 mg/kg/injection, schedule: Q01DX011 (ip), vehicle: saline, higher = larger tumour): 79 % of control
T/C (endpoint: mean tumor weight, dose: 125.0 mg/kg/injection, schedule: Q01DX011 (ip), vehicle: saline, higher = larger tumour): 49 % of control
T/C (endpoint: mean tumor weight, dose: 250.0 mg/kg/injection, schedule: Q01DX011 (ip), vehicle: saline, higher = larger tumour): 18 % of control

O=S(=O)(O)C(Nc1ccccc1)c1ccccc1 (stereo not given)
T/C (endpoint: mean tumor weight, dose: 100.0 mg/kg/injection, schedule: Q01DX011 (ip), vehicle: water, higher = larger tumour): 51 % of control
T/C (endpoint: mean tumor weight, dose: 200.0 mg/kg/injection, schedule: Q01DX011 (ip), vehicle: water, higher = larger tumour): 71 % of control
T/C (endpoint: mean tumor weight, dose: 400.0 mg/kg/injection, schedule: Q01DX011 (ip), vehicle: water, higher = larger tumour): 27 % of control

S=c1nc[nH]c2c1ncn2C1CCCO1 (stereo not given)
T/C (endpoint: mean tumor weight, dose: 12.5 mg/kg/injection, schedule: Q01DX011 (ip), vehicle: other, higher = larger tumour): 36 % of control
T/C (endpoint: mean tumor weight, dose: 25.0 mg/kg/injection, schedule: Q01DX011 (ip), vehicle: other, higher = larger tumour): 86 % of control
T/C (endpoint: mean tumor weight, dose: 50.0 mg/kg/injection, schedule: Q01DX011 (ip), vehicle: other, higher = larger tumour): 91 % of control
T/C (endpoint: mean tumor weight, dose: 100.0 mg/kg/injection, schedule: Q01DX011 (ip), vehicle: other, higher = larger tumour): 67 % of control

O=NN(CCCl)C(=O)NCC1CCC(CNC(=O)N(CCCl)N=O)CC1 (stereo not given)
T/C (endpoint: mean tumor weight, dose: 400.0 mg/kg/injection, schedule: Q01DX001 (ip), vehicle: carboxymethylcellulose (CMC), higher = larger tumour): 50 % of control
T/C (endpoint: mean tumor weight, dose: 600.0 mg/kg/injection, schedule: Q01DX001 (ip), vehicle: carboxymethylcellulose (CMC), higher = larger tumour): 36 % of control
T/C (endpoint: median survival time, dose: 3.12 mg/kg/injection, schedule: Q01DX009 (ip), vehicle: Klucel (hydroxypropylcellulose) (HPC), higher = longer survival): 92 % of control
T/C (endpoint: median survival time, dose: 6.25 mg/kg/injection, schedule: Q01DX009 (ip), vehicle: Klucel (hydroxypropylcellulose) (HPC), higher = longer survival): 93 % of control
T/C (endpoint: median survival time, dose: 12.5 mg/kg/injection, schedule: Q01DX009 (ip), vehicle: Klucel (hydroxypropylcellulose) (HPC), higher = longer survival): 98 % of control
T/C (endpoint: median survival time, dose: 25.0 mg/kg/injection, schedule: Q01DX009 (ip), vehicle: Klucel (hydroxypropylcellulose) (HPC), higher = longer survival): 100 % of control

CC(C)(CC(=O)O)CC(=O)OCC(=O)[C@@]1(O)CC[C@H]2[C@@H]3CCC4=CC(=O)C=C[C@]4(C)[C@H]3[C@@H](O)C[C@@]21C
T/C (endpoint: mean tumor weight, dose: 40.0 mg/kg/injection, schedule: Q01DX011 (sc), vehicle: steriod suspending solution, higher = larger tumour): 69 % of control
T/C (endpoint: mean tumor weight, dose: 80.0 mg/kg/injection, schedule: Q01DX011 (sc), vehicle: steriod suspending solution, higher = larger tumour): 76 % of control
T/C (endpoint: mean tumor weight, dose: 160.0 mg/kg/injection, schedule: Q01DX011 (sc), vehicle: steriod suspending solution, higher = larger tumour): 60 % of control
T/C (endpoint: mean tumor weight, dose: 320.0 mg/kg/injection, schedule: Q01DX011 (sc), vehicle: steriod suspending solution, higher = larger tumour): 51 % of control and 57 % of control
T/C (endpoint: mean tumor weight, dose: 640.0 mg/kg/injection, schedule: Q01DX011 (sc), vehicle: steriod suspending solution, higher = larger tumour): 31 % of control
